Reference: patent publication US20230014962A1, “Quinoline compound and use thereof” (SKYRUN PHARMA CO., LTD., priority 2019, published 2023)
pIC50: −log10 of the molar value.

Key:
[1] = molecular target: T1, FGFR4 (Homo sapiens, UniProt P22455); assay: Determination of FGFR4 inhibitory activity by fluorescence resonance energy transfer (FRET) method; type: biochemical; settings: FGFR4 from purchased kit, read-out: In vitro FGFR4 kinase inhibitory activity IC50
T1 construct: purchased
Text: 1. Determination of FGFR4 Inhibitory Activity of Target Compound
FGFR4 is obtained by direct purchase of a kit.

[2] = system: Hep3B cell; assay: Determination of Hep3B cell inhibitory activity (Cell Titer-Glo, 72 h); type: cell-based; settings: Hep3B cells, 72 h incubation, Cell Titer-Glo (CTG) method
Text: 2. Determination of Hep3B Cell Inhibitory Activity of Target Compound

T1 sequence (P22455 22-802): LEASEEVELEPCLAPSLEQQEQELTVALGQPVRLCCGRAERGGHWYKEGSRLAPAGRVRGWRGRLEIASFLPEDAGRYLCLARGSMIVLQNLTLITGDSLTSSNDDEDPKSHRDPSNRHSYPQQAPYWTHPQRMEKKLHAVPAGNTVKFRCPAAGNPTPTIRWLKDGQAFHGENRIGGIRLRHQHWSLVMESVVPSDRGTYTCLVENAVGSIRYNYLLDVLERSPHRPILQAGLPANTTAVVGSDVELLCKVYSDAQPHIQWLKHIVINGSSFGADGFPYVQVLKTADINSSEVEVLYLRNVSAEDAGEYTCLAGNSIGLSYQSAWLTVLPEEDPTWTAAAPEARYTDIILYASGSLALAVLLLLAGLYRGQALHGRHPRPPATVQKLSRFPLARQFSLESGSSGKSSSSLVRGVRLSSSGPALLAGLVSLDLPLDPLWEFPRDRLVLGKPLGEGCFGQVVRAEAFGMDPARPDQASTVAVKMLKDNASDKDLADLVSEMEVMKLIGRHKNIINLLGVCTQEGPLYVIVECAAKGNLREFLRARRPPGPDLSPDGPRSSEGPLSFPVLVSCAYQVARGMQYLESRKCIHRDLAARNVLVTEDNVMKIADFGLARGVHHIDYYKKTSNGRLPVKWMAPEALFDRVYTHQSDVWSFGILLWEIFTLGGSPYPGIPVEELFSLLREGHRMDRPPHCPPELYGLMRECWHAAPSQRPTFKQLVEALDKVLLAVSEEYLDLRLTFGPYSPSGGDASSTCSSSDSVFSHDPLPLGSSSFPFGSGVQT

| Compound | pIC50 [1] | pIC50 [2] | pIC50 ([2]; Homo sapiens) |
| --- | --- | --- | --- |
| 4-[3-chloro-4-cyclohexanecarbonylaminophenoxy]-6-[(1-chloroyl-1,2,3,6-tetrahydropyridine)-4-yl]-7-methoxyquinoline [Compound I-7] | > 8.70 | > 7.30 | – |
| C=CC(=O)N1CC=C(c2cc3c(Oc4ccc(NC(=O)NC5CC5)c(Cl)c4)ccnc3cc2OCCN2CCOCC2)CC1 [Compound I-14] | > 8.30 | – | > 7.00 |
| C=CC(=O)N1CCC(c2cc3c(Oc4ccc(NC(=O)NC5CC5)c(Cl)c4)ccnc3cc2OC)C1 (centres unmarked) [Compound I-23, 4-[3-chloro-4-(cyclopropylaminocarbonyl)aminophenoxy]-6-[(1-acryloyl-tetrahydropyrrole)-3-yl]-7-methoxyquinoline] | > 8.30 | – | > 6.30 |
| C=CC(=O)N1CCC=C(c2cc3c(Oc4ccc(NC(=O)NC5CC5)c(Cl)c4)ccnc3cc2OC)C1 [Compound I-21, 4-[3-chloro-4-(cyclopropylaminocarbonyl)aminophenoxy]-6-[(1-acryloyl-1,2,5,6-tetrahydropyridine)-3-yl]-7-methoxyquinoline] | > 8.30 | – | > 6.30 |
| 4-[2,6-dichloro-4-(cyclopropylaminocarbonyDaminobenzeneamino]-6-[(1-acryloyl-1,2,3,6-tetrahydropyridine)-4-yl]-7-methoxyquinoline [Compound I-27] | > 8.30 | > 6.30 | – |
| C=CC(=O)Nc1cccc(C)c1Nc1ncc2cc(-c3c(Cl)c(OC)cc(OC)c3Cl)ccc2n1 [Blu9931, reference compound] | – | – | 6.76 |
| COc1cc2nccc(Oc3ccc(NC(=O)NC4CC4)c(Cl)c3)c2cc1C(N)=O [Lenvatinib, reference compound] | 7.37 | – | > 6.30 |
| C=CC(=O)N1CC=C(c2cc3c(Oc4ccc(NC(=O)NC5CC5)c(Cl)c4)ccnc3cc2OC)C1 [Compound I-22, 4-[3-chloro-4-(cyclopropylaminocarbonyl)aminophenoxy]-6-[(1-acryloyl-2,5-dihydropyrrole)-3-yl]-7-methoxyquinoline] | > 8.30 | – | > 7.00 |
| C=CC(=O)N1CC=C(c2cc3c(Oc4ccc(NC(=O)NC5CC5)c(Cl)c4)ccnc3cc2OC2CCCC2)CC1 [Compound I-12] | > 8.30 | – | > 7.00 |
| C=CC(=O)N1CC=C(c2cc3c(Oc4ccc(NC(=O)NC5CC5)cc4F)ccnc3cc2OC)CC1 [Compound I-18, 4-[2-fluoro-4-(cyclopropylaminocarbonyl)aminophenoxy]-6[(1-acryloyl-1,2,3,6-tetrahydropyridine)-4-yl]-7-methoxyquinoline] | > 8.30 | > 7.30 | – |
| 4-[3-chloro-4-(cyclopropylaminocarbonyl)aminophenoxy]-6-[(1-chloroyl-1,2,3,6-tetrahydropyridine)-4-yl]-7-methoxyquinoline [Compound I-4] | > 8.30 | > 7.00 | – |
| C=CC(=O)N1CC=C(c2cc3c(Sc4ccc(NC(=O)NC5CC5)c(Cl)c4)ccnc3cc2OC)CC1 [Compound I-25, 4-[3-chloro-4-(cyclopropylaminocarbonyl)aminophenylmercapto]-6-[(1-acryloyl-1,2,3,6-tetrahydropyridine)-4-yl]-7-methoxyquinoline] | > 8.30 | – | > 7.00 |
| C=CC(=O)N1CC=C(c2cc3c(Oc4ccc(NC(=O)C5CCCC5)c(Cl)c4)ccnc3cc2OC)CC1 [Compound I-6] | > 8.30 | – | > 7.00 |
| 4-[3-chloro-4-(cyclopentylaminocarbonyl)aminophenoxy]-6-[(1-acryloyl-1,2,3,6-tetrahydropyridine)-4-yl]1-7-methoxyquinoline [Compound I-9] | > 8.30 | > 7.00 | – |
| C=CC(=O)N1CC=C(c2cc3c(Oc4ccc(NC(=O)Nc5ccccc5)c(Cl)c4)ccnc3cc2OC)CC1 [Compound I-17, 4-[3-chloro-4-(phenylaminocarbonyl)aminophenoxy]-6-[(1-acryloyl-1,2,3,6-tetrahydropyridine)-4-yl]-7-methoxyquinoline] | > 8.70 | – | > 7.30 |
| C=CS(=O)(=O)N1CC=C(c2cc3c(Oc4ccc(NC(=O)NC5CC5)c(Cl)c4)ccnc3cc2OC)CC1 [Compound I-3, 4-[3-chloro-4-(cyclopropylaminocarbonyl)aminophenoxyl]-6-[(1-ethylenesulfonyl-1,2,3,6-tetrahydropyridine)-4-yl]-7-methoxyquinoline] | > 8.30 | – | > 7.00 |
| C=CC(=O)N1CC=C(c2cc3c(Oc4ccc(C(=O)NC5CC5)c(Cl)c4)ccnc3cc2OC)CC1 [Compound I-24, 4-[3-chloro-4-(cyclopropylamino)carbonylphenoxy]-6-[(1-acryloyl-1,2,3,6-tetrahydropyridine)-4-yl]-7-methoxyquinoline] | > 8.70 | – | > 7.30 |
| 4-[3-chloro-4-(cyclopropylaminocarbonyl)aminophenoxy]-6-[(1-acryloyl-1,2,3,6-tetrahydropyridine)-4-yl]-7-methoxyquinoline [Compound I-1] | > 8.70 | > 7.30 | – |
| 4-[3-chloro-4-(cyclopropylaminocarbonyl)aminophenoxy]-6-[(1-acryloyl-piperidine)-4-yl]-7-methoxyquinoline [Compound I-8] | > 8.70 | > 7.30 | – |
| C=CC(=O)N1CC=C(c2cc3c(Oc4ccc(NC(=O)NC5CC5)cc4)ccnc3cc2OC)CC1 [Compound I-20, 4-[4-(cyclopropylaminocarbonyl)aminophenoxy]-6-[(1-acryloyl-1,2,3,6-tetrahydropyridine)-4-yl]-7-methoxyquinoline] | > 8.30 | – | > 6.30 |
| C=CC(=O)N1CC=C(c2cc3c(Oc4ccc(NC(=O)NC(C)(C)C)c(Cl)c4)ccnc3cc2OC)CC1 [Compound I-16, 4-[3-chloro-4-(tert-butylaminocarbonyl)aminophenoxy]-6-[(1-acryloyl-1,2,3,6-tetrahydropyridine)-4-yl]-7-methoxyquinoline] | > 8.30 | – | > 7.30 |
| C=CC(=O)N1CC=C(c2cc3c(Nc4ccc(NC(=O)NC5CC5)c(Cl)c4)ccnc3cc2OC)CC1 [Compound I-26, 4-[3-chloro-4-(cyclopropylaminocarbonyl)aminophenylamino]-6-[(1-acryloyl-1,2,3,6-tetrahydropyridine)-4-yl]-7-methoxyquinoline] | > 8.30 | – | > 6.30 |
| C=CC(=O)N1CC=C(c2cc3c(Oc4ccc(NC(=O)NC5CC5)c(Cl)c4)ccnc3cc2OCc2ccccc2)CC1 [Compound I-10] | > 8.30 | – | > 7.00 |
| C=CC(=O)N1CC=C(c2cc3c(Oc4ccc(NC(=O)NC5CC5)c(F)c4)ccnc3cc2OC)CC1 [Compound I-19, 4-[3-fluoro-4-(cyclopropylaminocarbonyl)aminophenoxy]-6-[(1-acryloyl-1,2,3,6-tetrahydropyridine)-4-yl]-7-methoxyquinoline] | > 8.70 | – | > 7.30 |
| 4-[3-chloro-4-(cyclopropylaminocarbonyl)aminophenoxy]-6-[(1-acryloyl-1,2,3,6-tetrahydropyridine)-4-yl]-7-ethylquinoline [Compound I-13] | > 8.70 | > 7.30 | – |
| C=CC(=O)N1CC=C(c2cc3c(Oc4ccc(NC(=O)NC5CCCCC5)c(Cl)c4)ccnc3cc2OC)CC1 [Compound I-15, 4-[3-chloro-4-(cyclohexylaminocarbonyl)aminophenoxy]-6-[(1-acryloyl-1,2,3,6-tetrahydropyridine)-4-yl]-7-methoxyquinoline] | – | – | > 7.30 |
| 4-[3-chloro-4-(cyclopropylaminocarbonyl)aminophenoxy]-6-[(1-diethylphosphorylacetyl-1,2,3,6-tetrahydropyridine)-4-yl]-7-methoxyquinoline [Compound I-2] | > 8.30 | > 7.00 | – |
| C=CC(=O)N1CC=C(c2cc3c(Oc4ccc(NC(=O)NC5CC5)c(Cl)c4)ccnc3cc2OC(C)C)CC1 [Compound I-11, 4-[3-chloro-4-(cyclopropylaminocarbonyl)aminophenoxy]-6-[(1-acryloyl-1,2,3,6-tetrahydropyridine)-4-yl]-7-isopropylquinoline] | > 8.70 | – | > 7.30 |
| 4-[3-chloro-4-cyclopropanecarboxylaminophenoxy]-6-[(1-chloroyl-1,2,3,6-tetrahydropyridine)-4 -yl]-7-methoxyquinoline [Compound I-5] | > 8.30 | > 7.00 | – |
